Data as given in patent US20060246099A1 (L'OREAL, priority 2005, published 2006).

Key:
[1] = tested on: type L calcium channels, verapamil site; assay: Binding to type L calcium channels, [3H](-)-D888 displacement; design: species or system rat; conditions: similar test, concentration of 50 μM
Description: The studies are performed using rat cerebral cortex homogenates (isolated membranes containing at their surface type L calcium channels) according to the method described by Reynolds I. J. et al., 1986, J. Pharmacol. Exp. Ther., 237, p. 731.
The experimental conditions are as follows:
D888, which is [^3H] (−)-demethoxyverapamil, serves as a radiolabelled specific ligand, and D600, which is (±)-methoxyverapamil hydrochloride, serves as a reference molecule.
The specific binding of a ligand (labelled D888) to the receptors (type L calcium channels, verapamil site) is defined as being the difference between the total binding and the non-specific binding determined in the presence of an excess of cold (non-radioactive) ligand. The results are expressed as a percentage of inhibition of the specific binding of the control in the presence of the test compound.

[2] = tested on: human striated muscle cells innervated with explants of rat embryonic rachidian ganglia and spinal cord; assay: Nerve-muscle coculture test (muscle fibre contractions); format: cell-based; conditions: 60 seconds incubation
Description: The compounds of Examples 1 and 2 were tested on a model of nerve-muscle coculture, which makes it possible to recreate a motor arc by innervating human striated muscle cells with explants of rat embryonic rachidian ganglia and spinal cord.
Human muscle cells, obtained from samples of striated muscle from healthy donors, are inoculated into wells of cross section 1.8 cm^2 (24-well culture dishes). After culturing for ten days, these cells form a monolayer and fuse. At this stage, explants of embryonic spinal cord from a 13-day-old rat, containing the rachidian ganglia, are placed on the culture.
The growth of the neurites is visible beyond the spinal cord explant after one day of culture. The first contractions of the muscle fibres are observed after five to six days of coculture, and after three weeks all the muscle fibres in the region of the explants contract.
The cocultures are used after 21 days, when the muscle fibres are striated and contain mature differentiated neuromuscular junctions.
A muscle fibre showing regular contractions (at least 60 contractions per minute) is then selected from three different culture wells and the number of contractions is counted over 30 seconds. […] At the end of incubation, the number of contractions is again counted over 30 seconds. […]

[3] = in vivo; cited from earlier work
[4] = tested on: human striated muscle cells innervated with explants of rat embryonic rachidian ganglia and spinal cord; conditions: validation of the model; cited from earlier work

Row | Molecule | inhibition of the specific binding of the control to the calcium channels [1] [%] | % inhibition of contractions ([2]; 10 μM) [%] | % inhibition of contractions ([2]; 100 μM) [%] | anti-wrinkle activity [3] | inhibition of muscle fibre contractions [4]
1 | 1-(2-phenylethyl)-4-(3-phenylpropyl)-piperazine [Compound 2] | 50 | 50 | 100 |  | 
2 | CN1C(=O)CN=C(c2ccccc2)c2cc(Cl)ccc21 [diazepam] |  |  |  | anti-wrinkle activity has been demonstrated in vivo | inhibited muscle fibre contractions
